Measurements: patent US20050153894A1, “p21 peptides” (Cyclacel Limited, priority 1999, published 2005)
Like-named read-outs stand apart in the source and are kept apart here. Numbered stars: 1 amine (or outer) side, 2 acyl side, 3 side chain; on linkers, the order of the positions; unused ones are H or OH. Square brackets hold non-standard residues; d marks the D form. Dhp = Dehydrophenylalanine, O=C(/C(=C/c1ccccc1)N[*:1])[*:2]; Phe(ol) = N[C@H](CO)Cc1ccccc1; dPse = not defined here; Pse = Phenylserine

Experiments:
[1] = target: T1, CDK2/Cyclin E (Homo sapiens, UniProt P24864); test: CDK2/Cyclin E kinase assay, phosphorylation of GST-Rb; assay type: biochemical; conditions: for Kinase Inhibition Cyclin E/CDK2 % Inhibition / Kinase Inhibition Cyclin E/CDK2 IC30: GST-pRb substrate, [ATP] = 100 μM
T1 construct: 6xHis; made in house; host or cells: Sf9 insect cells (baculovirus co-expression)
Experimental: (§1) The phosphorylation reaction mixture (total volume 40 μl) consisted of 50 mM HEPES pH 7.4, 20 mM MgCl2, 5 mM EGTA, 2 mM DTT, 20 mM β-glycerophosphate, 2 mM NaF, 1 mM Na3VO4, Protease Inhibitors Cocktail (Sigma, see above), BSA 0.5 mg/ml, 1 μg purified enzyme complex, 10 μl of GST-Rb-Sepharose beads, 100 μM ATP, 0.2 μCi ^32P-ATP. The reaction was carried out for 30 min at 30° C. at constant shaking. At the end of this period 100 μl of 50 mM HEPES, pH 7.4 and 1 mM ATP were added to each well and the total volume was transferred onto GFC filtered plate. The plate was washed 5 times with 200 μl of 50 mM HEPES, pH 7.4 and 1 mM ATP. To each well were added 50 μl scintillant liquid and the radioactivity of the samples was measured on Scintilation counter (Topcount, HP). The IC50 values of different peptides were calculated using GraFit software.

[2] = target: CDK2/cyclin A (Homo sapiens, UniProt P20248); test: CDK2/cyclin A kinase assay, substrate pRb(773-928); assay type: biochemical; conditions: for Relative activity Kinase Inhibition: relative to H-His-Ala-Lys-Arg-Arg-Leu-Ile-Phe-NH2 (SEQ ID No. 36) = 1, CDK2/cyclin A kinase assay, pRb substrate, [ATP] = 100 μM
Description: Reactions were stopped on ice, followed by filtration through p81 filterplates (Whatman Polyfiltronics, Kent, UK).

[3] = target: T2, CDK4/Cyclin D1 (Homo sapiens, UniProt P24385); test: CDK4/Cyclin D1 kinase assay, phosphorylation of GST-Rb; assay type: biochemical
T2 construct: made in house; host or cells: CDK4: Sf9 insect cells (baculovirus)
T2 sequence (P24385 whole entry): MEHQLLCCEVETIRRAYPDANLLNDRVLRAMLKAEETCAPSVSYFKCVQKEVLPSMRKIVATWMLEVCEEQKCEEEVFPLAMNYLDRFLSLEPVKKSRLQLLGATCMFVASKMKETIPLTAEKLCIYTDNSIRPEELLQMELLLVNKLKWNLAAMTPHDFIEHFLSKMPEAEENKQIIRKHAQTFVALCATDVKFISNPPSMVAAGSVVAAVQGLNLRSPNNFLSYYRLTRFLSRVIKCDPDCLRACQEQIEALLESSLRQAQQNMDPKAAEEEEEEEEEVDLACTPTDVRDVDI
T2 sequence (P11802 whole entry partner): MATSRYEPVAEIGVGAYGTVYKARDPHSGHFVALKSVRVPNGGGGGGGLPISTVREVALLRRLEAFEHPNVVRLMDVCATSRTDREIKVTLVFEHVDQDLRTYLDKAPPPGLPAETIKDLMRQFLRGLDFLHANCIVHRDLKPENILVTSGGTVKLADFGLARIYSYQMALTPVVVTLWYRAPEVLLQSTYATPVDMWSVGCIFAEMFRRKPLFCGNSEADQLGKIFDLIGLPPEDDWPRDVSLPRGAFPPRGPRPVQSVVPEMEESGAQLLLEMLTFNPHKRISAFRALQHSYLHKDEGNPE
Experimental: as §1
Peptides were synthesized as described above. Cyclin D1 was expressed in E coli BL21(DE3) using PET expression vector and purified from the inclusion bodies. After refolding Cyclin D1 was cross-linked on SulfoLink agarose support (PIERCE). CDK4-6×His was expressed in Sf9 insect cells infected with the appropriate baculovirus construct and purified by metal-affinity chromatography (Quiagen). […] CDK4/Cyclin D1 phosphorilation of Rb was determined by incorporation of radio-labeled phosphate in GST-Rb in 96-well format kinase assay. […] The reaction was carried out for 30 min at 30 C at constant shaking. The GST-Rb-Sepharose beads were washed with 50 mM HEPES and 1 mM ATP and the radioactivity was measured on Scintillation counter (Topcount, HP)

[4] = target: Cyclin A (Homo sapiens, UniProt P20248); test: Cyclin A binding assay, immobilised biotinyl-Ahx-[…]NH2; conditions: for Cyclin A Binding Maximum Inhibition: at 100 μM, no IC50 given; for Relative activity Cyclin A Binding: relative to SEQ ID No. 36 = 1, competitive cyclin A binding, immobilised biotinyl-Ahx-His-Ala-Lys-Arg-Arg-Leu-Ile-Phe-NH2
Chain of Cyclin A (P20248 whole entry): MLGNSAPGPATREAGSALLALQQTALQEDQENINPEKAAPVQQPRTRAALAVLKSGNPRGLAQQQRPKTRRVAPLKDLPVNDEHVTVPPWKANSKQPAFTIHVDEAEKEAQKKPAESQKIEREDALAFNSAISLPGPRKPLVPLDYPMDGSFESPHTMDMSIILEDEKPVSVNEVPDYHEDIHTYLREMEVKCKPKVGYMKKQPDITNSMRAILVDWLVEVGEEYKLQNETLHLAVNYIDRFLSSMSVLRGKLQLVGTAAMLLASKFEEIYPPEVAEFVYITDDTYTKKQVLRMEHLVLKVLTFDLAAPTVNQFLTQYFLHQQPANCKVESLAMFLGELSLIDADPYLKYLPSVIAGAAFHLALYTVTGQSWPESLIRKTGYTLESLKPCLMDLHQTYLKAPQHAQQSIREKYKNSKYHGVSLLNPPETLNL
Experimental: This was added to each well (100 μL). The plate was incubated for 1 h at room temperature with constant shaking. The plate was washed once quickly with TBS/BSA buffer (200 μL), followed by three more washes with TBS/BSA buffer (200 μL) for 5 min each. Serial dilutions of test peptides were prepared in a new plate (50 μL in each well). Cyclin A was diluted to 5 μg/50 μL with TBS/BSA buffer and this was then added to each well (50 μL). The solutions were mixed thoroughly with a pipette (5-6 times), before being incubated for 30 min at room temperature. This reaction mixture was then transferred to the biotinylated peptide: streptavidin-coated plate and incubated for 1 h at room temperature with constant shaking. The plate was washed once quickly with TBS/BSA buffer (200 μL), followed by three more washes with TBS/BSA buffer (200 μL) for 5 min each. The cyclin A antibody (Santa Cruz polyclonal) solution was diluted 1:200 with TBS/BSA buffer and this was then added to each well of the plate (100 μL. The plate was incubated for 1 h at room temperature with constant shaking. The plate was washed once quickly with TBS/BSA buffer (200 μl), followed by three more washes with TBS/BSA buffer (200 μL) for 5 min each. The anti-rabbit secondary antibody (goat anti-rabbit IgG peroxidase conjugate) was diluted 1:10,000 with TBS/BSA and this was then added to each well of the plate (100 μL). The plate was incubated for 1 h at room temperature with constant shaking. The plate was washed once quickly with TBS/BSA buffer (200 μL), followed by three more washes with TBS/BSA buffer (200 μL) for 5 min each. To each well was added the TMB-ELISA reagent (Pierce 1-Step™ Turbo TMB-ELISA; 100 μL) and the plate incubated for 1 min with constant shaking. The reaction was then quenched by the addition of 2 M aqueous H2SO4 (100 μL, each well). The UV absorbance of the each solution was measured spectrophotometrically at 450 nm. IC50 values were calculated from dose-response curves.

[5] = GST-pRb substrate, [ATP] = 100 μM

## CC[C@H](C)[C@H](NC(=O)[C@H](CC(C)C)NC(=O)[C@H](CCCNC(=N)N)NC(=O)[C@H](CCCNC(=N)N)NC(=O)[C@H](CCCCN)NC(=O)[C@H](CO)NC(=O)[C@@H](N)Cc1c[nH]cn1)C(=O)N[C@@H](Cc1ccccc1)C(N)=O
[1]; phosphorylation of pRb, read-out: Kinase Inhibition Cyclin E/CDK2 IC50
  IC50: 3.4 µM
[2]; phosphorylation of pRb
  Kinase Inhibition Cyclin A/CDK2 % Inhibition: 80%
[2]; phosphorylation of pRb, read-out: Kinase Inhibition Cyclin A/CDK2 IC50
  IC50: 3.4 µM
[3]; [5]
  inhibition at 100 µM: 72%
[3]; phosphorylation of pRb, read-out: Kinase Inhibition Cyclin D1/CDK4 IC50
  IC50: 21 µM

## 24 (FYHSKRRLIFS) [compound 24]
[4]
  Cyclin A Binding Maximum Inhibition: 50(at 100 (μM) %

## 30 (SKRRLIF) [compound 30]
[4]
  Cyclin A Binding Maximum Inhibition: 20(at 100 (μM) %

## 110 (H-HAKRRLI[Pse]-OH) [compound 110]
[2]
  Relative activity Kinase Inhibition: <0.1
[4]
  Relative activity Cyclin A Binding: 0.2

## 111 (H-HAKRRLI[dPse]-OH; reading uncertain) [compound 111]
[2]
  Relative activity Kinase Inhibition: <0.1
[4]
  Relative activity Cyclin A Binding: 0.1

## 112 (H-HSKRRLI[Pse]-OH) [compound 112]
[2]
  Relative activity Kinase Inhibition: <0.1
[4]
  Relative activity Cyclin A Binding: <0.1

## 113 (H-HSKRRLI[dPse]-OH; reading uncertain) [compound 113]
[2]
  Relative activity Kinase Inhibition: <0.1
[4]
  Relative activity Cyclin A Binding: <0.1

## 118 (H-HAKRRLI[Dhp]-OH; not fully specified) [compound 118]
[2]
  Relative activity Kinase Inhibition: 3.3
[4]
  Relative activity Cyclin A Binding: 0.2

## 120 (H-HAKRRLI[Phe(ol)]) [compound 120]
[2]
  Relative activity Kinase Inhibition: 0.6
[4]
  Relative activity Cyclin A Binding: 1.0

## CC(=O)N[C@@H](CCCN=C(N)N)C(=O)N[C@@H](CCCN=C(N)N)C(=O)N[C@@H](CC(C)C)C(=O)N[C@@H](CC(N)=O)C(=O)N[C@@H](Cc1ccccc1)C(N)=O [compound 378]
[2]
  IC50: 37.2 µM
[4]
  IC50: 8.15 µM

## DFYHSK
[1]
  Kinase Inhibition Cyclin E/CDK2 % Inhibition: 45%
  Kinase Inhibition Cyclin E/CDK2 IC30: 200 µM
[3]; [5]
  Kinase Inhibition Cyclin D1/CDK4 % Inhibition: 10%

## DFYHSKARLIFS (H-DFYHSKARLIFS-NH2)
[1]
  Kinase Inhibition Cyclin E/CDK2 % Inhibition: 25%
[3]; [5]
  Kinase Inhibition Cyclin D1/CDK4 % Inhibition: 30%

## DFYHSKRALIFS
[1]
  Kinase Inhibition Cyclin E/CDK2 % Inhibition: 70%
  Kinase Inhibition Cyclin E/CDK2 IC30: 30 ± 8 µM
[3]; [5]
  Kinase Inhibition Cyclin D1/CDK4 % Inhibition: 30%

## DFYHSKRR (H-DFYHSKRR-NH2)
[1]
  Kinase Inhibition Cyclin E/CDK2 % Inhibition: 40%
[3]; [5]
  Kinase Inhibition Cyclin D1/CDK4 % Inhibition: 10%

## DFYHSKRRAIFS (H-DFYHSKRRAIFS-NH2)
[1]
  Kinase Inhibition Cyclin E/CDK2 % Inhibition: 30%
[3]; [5]
  Kinase Inhibition Cyclin D1/CDK4 % Inhibition: 30%

## DFYHSKRRL
[1]
  Kinase Inhibition Cyclin E/CDK2 % Inhibition: 50%
  Kinase Inhibition Cyclin E/CDK2 IC30: 200 µM
[3]; [5]
  Kinase Inhibition Cyclin D1/CDK4 % Inhibition: 10%

## DFYHSKRRLAFS
[1]
  Kinase Inhibition Cyclin E/CDK2 % Inhibition: 80%
  Kinase Inhibition Cyclin E/CDK2 IC30: 14 ± 3 µM
[3]; [5]
  Kinase Inhibition Cyclin D1/CDK4 % Inhibition: 61%
  Kinase Inhibition Cyclin D1/CDK4 IC30: 53 ± 20 µM

## DFYHSKRRLI (H-DFYHSKRRLI-NH2)
[1]
  Kinase Inhibition Cyclin E/CDK2 % Inhibition: 35%
[3]; [5]
  Kinase Inhibition Cyclin D1/CDK4 % Inhibition: 20%

## DFYHSKRRLIAS (H-DFYHSKRRLIAS-NH2)
[1]
  Kinase Inhibition Cyclin E/CDK2 % Inhibition: 20%
[3]; [5]
  Kinase Inhibition Cyclin D1/CDK4 % Inhibition: 35%

## DFYHSKRRLIF
[1]
  Kinase Inhibition Cyclin E/CDK2 % Inhibition: 75%
  Kinase Inhibition Cyclin E/CDK2 IC30: 2 ± 0.2 µM
[3]; [5]
  Kinase Inhibition Cyclin D1/CDK4 % Inhibition: 70%
  Kinase Inhibition Cyclin D1/CDK4 IC30: 13 ± 2 µM

## DFYHSKRRLIFA
[1]
  Kinase Inhibition Cyclin E/CDK2 % Inhibition: 70%
[3]; [5]
  Kinase Inhibition Cyclin D1/CDK4 % Inhibition: 60%
  Kinase Inhibition Cyclin D1/CDK4 IC30: 40 µM
